Bridge positions count the residues as written; N and C are the ends. Peptide text beside a SMILES is read from it.
These molecules were tested against T1, hAMY3 receptor (Homo sapiens, UniProt O60896+P30988) (assay: cAMP assay for in vitro receptor activation, hAMY3-R). Settings: cAMP assay, hAMY3 receptor; read-out: hAMY3R EC50.
T1 sequence (P30988 25-474): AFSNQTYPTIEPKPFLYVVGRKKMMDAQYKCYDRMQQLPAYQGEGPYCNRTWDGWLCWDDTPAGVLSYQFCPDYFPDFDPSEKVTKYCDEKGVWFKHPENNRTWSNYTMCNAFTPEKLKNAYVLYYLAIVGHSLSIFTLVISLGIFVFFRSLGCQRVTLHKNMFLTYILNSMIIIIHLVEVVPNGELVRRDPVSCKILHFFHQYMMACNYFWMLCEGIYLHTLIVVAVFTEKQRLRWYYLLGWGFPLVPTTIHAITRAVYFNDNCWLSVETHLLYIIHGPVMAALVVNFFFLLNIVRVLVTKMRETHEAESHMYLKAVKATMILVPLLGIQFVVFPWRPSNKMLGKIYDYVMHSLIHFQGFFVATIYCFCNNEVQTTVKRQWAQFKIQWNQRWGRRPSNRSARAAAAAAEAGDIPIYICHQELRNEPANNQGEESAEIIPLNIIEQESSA
T1 sequence (O60896 24-148 partner): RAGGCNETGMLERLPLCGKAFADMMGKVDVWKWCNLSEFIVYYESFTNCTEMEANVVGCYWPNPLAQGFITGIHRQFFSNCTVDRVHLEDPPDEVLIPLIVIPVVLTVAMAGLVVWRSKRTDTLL
Type: cell-based
In short: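 Receptor activation was measured as cAMP accumulation in a monoclonal cell line stably overexpressing hAMY3. Stimulation with graded doses lasted 30 min at room temperature in the presence of 0.5 mM IBMX, with human amylin as positive control.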
An EC50 of 0.027 nM was found for `CC[C@H](C)[C@H](NC(=O)[C@H](C)NC(=O)CNC(=O)[C@H](CC(=O)O)NC(=O)[C@H](CCCCN)NC(=O)[C@H](CC(=O)O)NC(=O)[C@@H](NC(=O)[C@H](Cc1ccccc1)NC(=O)[C@H](CCC(N)=O)NC(=O)[C@H](Cc1ccc(O)cc1)NC(=O)[C@H](CC(C)C)NC(=O)[C@H](Cc1ccccc1)NC(=O)[C@H](Cc1c[nH]cn1)NC(=O)[C@H](C)NC(=O)[C@H](CC(C)C)NC(=O)[C@H](CCCNC(=N)N)NC(=O)[C@H](CCC(N)=O)NC(=O)[C@@H](NC(=O)[C@@H](NC(=O)[C@@H]1CSSC[C@H](NC(=O)CN)C(=O)N[C@@H](CCCNC(=N)N)C(=O)N[C@@H](Cc2ccccc2)C(=O)NCC(=O)N[C@@H]([C@@H](C)O)C(=O)N1)[C@@H](C)O)C(C)C)[C@@H](C)O)C(=O)N[C@@H](C)C(=O)N1CCC[C@H]1C(=O)N[C@@H](CCCNC(=N)N)C(=O)N[C@H](C(=O)N[C@@H](CCCCN)C(=O)N[C@H](C(=O)NCC(=O)N[C@@H](CO)C(=O)N[C@@H](CCC(N)=O)C(=O)NCC(=O)N[C@@H](Cc1ccc(O)cc1)C(N)=O)[C@@H](C)CC)[C@@H](C)O` [compound 123] (H-GCRFGTCTVQRLAHFLYQFTDKDGAIAPRTKIGSQGY-NH2; disulfide 2-7; N-terminus assumed) in this work.
An EC50 of 0.024 nM was found for `CC(C)C[C@H](NC(=O)[C@H](CCCNC(=N)N)NC(=O)[C@H](CCC(N)=O)NC(=O)[C@@H](NC(=O)[C@@H](NC(=O)[C@@H]1CSSC[C@H](NC(=O)CN)C(=O)N[C@@H](CCCNC(=N)N)C(=O)N[C@@H](Cc2ccccc2)C(=O)N[C@@H](C)C(=O)N[C@@H]([C@@H](C)O)C(=O)N1)[C@@H](C)O)C(C)C)C(=O)N[C@@H](C)C(=O)N[C@@H](Cc1c[nH]cn1)C(=O)N[C@@H](Cc1ccccc1)C(=O)N[C@@H](CC(C)C)C(=O)N[C@@H](Cc1ccc(O)cc1)C(=O)N[C@@H](CCC(N)=O)C(=O)N[C@@H](Cc1ccccc1)C(=O)N[C@H](C(=O)N[C@@H](CC(=O)O)C(=O)N[C@@H](CCCCN)C(=O)N[C@@H](CC(=O)O)C(=O)N[C@@H](CCCCN)C(=O)N[C@@H](CC(=O)O)C(=O)N[C@@H](CC(N)=O)C(=O)N[C@H](C(=O)N[C@@H](C)C(=O)N1CCC[C@H]1C(=O)N[C@@H](CCCNC(=N)N)C(=O)N[C@H](C(=O)N[C@@H](CCCCN)C(=O)N[C@H](C(=O)NCC(=O)N1CCC[C@H]1C(=O)N[C@@H](CCC(N)=O)C(=O)NCC(=O)N[C@@H](Cc1ccc(O)cc1)C(N)=O)C(C)C)[C@@H](C)O)C(C)C)[C@@H](C)O` [compound 377] (H-GCRFATCTVQRLAHFLYQFTDKDKDNVAPRTKVGPQGY-NH2; disulfide 2-7; N-terminus assumed) in this work.
An EC50 of 0.01 nM was found for `CC[C@H](C)[C@H](NC(=O)[C@H](CCCCN)NC(=O)[C@H](CO)NC(=O)[C@H](CCCNC(=N)N)NC(=O)[C@@H]1CCCN1C(=O)[C@H](C)NC(=O)[C@@H](NC(=O)[C@H](CC(N)=O)NC(=O)[C@H](CC(=O)O)NC(=O)[C@H](CCCCN)NC(=O)[C@H](CC(=O)O)NC(=O)[C@H](CCCCN)NC(=O)[C@H](CC(=O)O)NC(=O)[C@@H](NC(=O)[C@H](Cc1ccccc1)NC(=O)[C@H](CCC(N)=O)NC(=O)[C@@H](NC(=O)[C@H](CC(C)C)NC(=O)[C@H](Cc1ccccc1)NC(=O)[C@H](CC(N)=O)NC(=O)[C@H](C)NC(=O)[C@H](CC(C)C)NC(=O)[C@H](CCCNC(=N)N)NC(=O)[C@H](CCC(N)=O)NC(=O)[C@@H](NC(=O)[C@H](C)NC(=O)[C@@H]1CSSC[C@H](NC(=O)[C@@H](N)CCCCN)C(=O)N[C@@H](CC(N)=O)C(=O)N[C@@H](Cc2ccccc2)C(=O)N[C@@H](C)C(=O)N[C@@H]([C@@H](C)O)C(=O)N1)[C@@H](C)O)C(C)C)[C@@H](C)O)C(C)C)C(=O)NCC(=O)N1CCC[C@H]1C(=O)N[C@@H](CCC(N)=O)C(=O)NCC(=O)N[C@@H](Cc1ccc(O)cc1)C(N)=O` [compound 363] (H-KCNFATCATQRLANFLVQFTDKDKDNVAPRSKIGPQGY-NH2; disulfide 2-7; N-terminus assumed) in this work.
An EC50 of 0.015 nM was found for `CC[C@H](C)[C@H](NC(=O)[C@H](CCC(N)=O)NC(=O)[C@H](Cc1c[nH]cn1)NC(=O)[C@H](C)NC(=O)[C@H](CC(C)C)NC(=O)[C@H](CCCNC(=N)N)NC(=O)[C@H](CCC(N)=O)NC(=O)[C@@H](NC(=O)[C@@H](NC(=O)[C@@H]1CSSC[C@H](NC(=O)CN)C(=O)N[C@@H](CCCNC(=N)N)C(=O)N[C@@H](Cc2ccccc2)C(=O)NCC(=O)N[C@@H]([C@@H](C)O)C(=O)N1)[C@@H](C)O)C(C)C)C(=O)N[C@@H](Cc1ccc(O)cc1)C(=O)N[C@@H](CCC(N)=O)C(=O)N[C@@H](Cc1ccccc1)C(=O)N[C@H](C(=O)N[C@@H](CC(=O)O)C(=O)N[C@@H](CCCCN)C(=O)N[C@@H](CC(=O)O)C(=O)N[C@@H](CCCCN)C(=O)N[C@@H](CC(=O)O)C(=O)N[C@@H](CC(N)=O)C(=O)N[C@H](C(=O)N[C@@H](C)C(=O)N1CCC[C@H]1C(=O)N[C@@H](CCCNC(=N)N)C(=O)N[C@H](C(=O)N[C@@H](CCCCN)C(=O)N[C@H](C(=O)NCC(=O)N1CCC[C@H]1C(=O)N[C@@H](CCC(N)=O)C(=O)NCC(=O)N[C@@H](Cc1ccc(O)cc1)C(N)=O)C(C)C)[C@@H](C)O)C(C)C)[C@@H](C)O` [compound 368] (H-GCRFGTCTVQRLAHQIYQFTDKDKDNVAPRTKVGPQGY-NH2; disulfide 2-7; N-terminus assumed) in this work.
An EC50 of 0.014 nM was found for `CC[C@H](C)[C@H](NC(=O)[C@H](CCCCN)NC(=O)[C@@H](NC(=O)[C@H](CCCNC(=N)N)NC(=O)[C@@H]1CCCN1C(=O)[C@H](C)NC(=O)[C@@H](NC(=O)[C@H](CC(N)=O)NC(=O)[C@H](CC(=O)O)NC(=O)[C@H](CCCCN)NC(=O)[C@H](CC(=O)O)NC(=O)[C@H](CCCCN)NC(=O)[C@H](CC(=O)O)NC(=O)[C@@H](NC(=O)[C@H](Cc1ccccc1)NC(=O)[C@H](CCC(N)=O)NC(=O)[C@H](Cc1ccc(O)cc1)NC(=O)[C@@H](NC(=O)[C@H](CCC(N)=O)NC(=O)[C@H](Cc1c[nH]cn1)NC(=O)[C@H](C)NC(=O)[C@H](CC(C)C)NC(=O)[C@H](CCCNC(=N)N)NC(=O)[C@H](CCC(N)=O)NC(=O)[C@@H](NC(=O)[C@@H](NC(=O)[C@@H]1CSSC[C@H](NC(=O)CN)C(=O)N[C@@H](CCCNC(=N)N)C(=O)N[C@@H](Cc2ccccc2)C(=O)NCC(=O)N[C@@H]([C@@H](C)O)C(=O)N1)[C@@H](C)O)C(C)C)[C@@H](C)CC)[C@@H](C)O)C(C)C)[C@@H](C)O)C(=O)NCC(=O)N1CCC[C@H]1C(=O)N[C@@H](CC(N)=O)C(=O)NCC(=O)N[C@@H](Cc1ccc(O)cc1)C(N)=O` [compound 367] (H-GCRFGTCTVQRLAHQIYQFTDKDKDNVAPRTKIGPNGY-NH2; disulfide 2-7; N-terminus assumed) in this work.
